Where two headings read alike, the source gives them in different places.
Columns and labels:
AT4 receptor [1] = molecular target: T1, AT4 receptor (Bos taurus, UniProt F1N1Q8); assay: 125I-AIV binding and competition, bovine adrenal cortical membranes
T1 sequence (F1N1Q8 1-1022): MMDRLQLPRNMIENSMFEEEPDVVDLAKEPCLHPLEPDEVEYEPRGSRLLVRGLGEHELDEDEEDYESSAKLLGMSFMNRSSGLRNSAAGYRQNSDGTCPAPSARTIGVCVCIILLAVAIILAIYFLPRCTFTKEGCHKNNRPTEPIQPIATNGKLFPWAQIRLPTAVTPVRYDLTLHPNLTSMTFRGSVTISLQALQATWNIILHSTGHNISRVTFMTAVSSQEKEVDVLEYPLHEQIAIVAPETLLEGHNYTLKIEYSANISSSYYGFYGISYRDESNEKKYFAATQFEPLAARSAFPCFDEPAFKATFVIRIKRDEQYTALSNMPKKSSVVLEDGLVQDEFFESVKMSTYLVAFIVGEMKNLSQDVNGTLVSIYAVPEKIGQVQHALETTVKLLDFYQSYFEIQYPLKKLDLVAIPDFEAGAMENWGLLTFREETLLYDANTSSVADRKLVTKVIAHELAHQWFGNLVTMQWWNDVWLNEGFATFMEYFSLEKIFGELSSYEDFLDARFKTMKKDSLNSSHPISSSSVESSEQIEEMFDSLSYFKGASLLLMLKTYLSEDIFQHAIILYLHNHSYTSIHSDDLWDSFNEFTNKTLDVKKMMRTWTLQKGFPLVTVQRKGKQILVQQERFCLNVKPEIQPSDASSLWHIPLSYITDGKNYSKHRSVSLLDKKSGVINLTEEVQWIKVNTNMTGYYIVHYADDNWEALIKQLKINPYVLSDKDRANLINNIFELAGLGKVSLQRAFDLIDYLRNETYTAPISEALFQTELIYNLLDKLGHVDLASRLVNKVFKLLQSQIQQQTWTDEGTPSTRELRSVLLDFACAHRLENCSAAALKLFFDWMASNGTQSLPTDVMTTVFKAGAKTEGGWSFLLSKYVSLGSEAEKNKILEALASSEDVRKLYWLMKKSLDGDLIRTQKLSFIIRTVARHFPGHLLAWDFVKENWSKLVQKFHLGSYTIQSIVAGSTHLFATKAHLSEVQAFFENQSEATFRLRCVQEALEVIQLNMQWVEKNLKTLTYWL

AT4 receptor [2] = molecular target: T1, AT4 receptor; assay: 125I-AIV binding and competition, solubilized bovine adrenal cortical receptor
AT4 receptor [3] = molecular target: T1, AT4 receptor; assay: 125I-AIV binding and competition, coronary venular endothelial cell (CVEC) membranes; set-up: species or system bovine; conditions: for Ki: read-out: Ki
[4] = Stability of angiotensin peptides in binding buffer (reverse phase HPLC); format: physicochemical; conditions: 4 h at 37° C.
Method: Binding studies were carried out in a buffer (below) containing an extensive cocktail of inhibitors that was designed to minimize metabolism of both the receptor and the test ligand, i.e., the buffer contained 5 mM EDTA, 0.2% BSA, […] Bestatin, 50 μM Plummer's inhibitor, and 100 μM PMSF.

[5] = arterial and venous blood in man; cited from earlier work
[6] = in vivo; cited from earlier work
[7] = molecular target: T2, AT1 receptor (AII receptor) (Bos taurus, UniProt P25104); format: binding, bovine; conditions: for Bmax: equilibrium binding
T2 construct: from tissue; host or cells: bovine adrenal cortex membranes
T2 sequence (P25104 1-359): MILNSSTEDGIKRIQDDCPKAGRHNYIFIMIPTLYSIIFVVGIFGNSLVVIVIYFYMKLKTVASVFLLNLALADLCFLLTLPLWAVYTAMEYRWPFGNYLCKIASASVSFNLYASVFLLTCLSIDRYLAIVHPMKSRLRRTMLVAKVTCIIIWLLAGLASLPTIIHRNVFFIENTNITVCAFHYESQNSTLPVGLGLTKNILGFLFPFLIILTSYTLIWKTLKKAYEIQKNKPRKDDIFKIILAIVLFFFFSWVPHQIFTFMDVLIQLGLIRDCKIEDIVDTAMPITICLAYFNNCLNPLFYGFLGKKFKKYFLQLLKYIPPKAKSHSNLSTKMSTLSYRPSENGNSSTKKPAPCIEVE

AT4 receptor [8] = molecular target: T3, AT4 receptor (Oryctolagus cuniculus, UniProt G1SFU4); assay: 125I-AIV binding and competition, rabbit heart P2 membranes; conditions: competition of 0.5 nM 125I-AIV, 120 min, 37° C.
T3 sequence (G1SFU4 1-1025): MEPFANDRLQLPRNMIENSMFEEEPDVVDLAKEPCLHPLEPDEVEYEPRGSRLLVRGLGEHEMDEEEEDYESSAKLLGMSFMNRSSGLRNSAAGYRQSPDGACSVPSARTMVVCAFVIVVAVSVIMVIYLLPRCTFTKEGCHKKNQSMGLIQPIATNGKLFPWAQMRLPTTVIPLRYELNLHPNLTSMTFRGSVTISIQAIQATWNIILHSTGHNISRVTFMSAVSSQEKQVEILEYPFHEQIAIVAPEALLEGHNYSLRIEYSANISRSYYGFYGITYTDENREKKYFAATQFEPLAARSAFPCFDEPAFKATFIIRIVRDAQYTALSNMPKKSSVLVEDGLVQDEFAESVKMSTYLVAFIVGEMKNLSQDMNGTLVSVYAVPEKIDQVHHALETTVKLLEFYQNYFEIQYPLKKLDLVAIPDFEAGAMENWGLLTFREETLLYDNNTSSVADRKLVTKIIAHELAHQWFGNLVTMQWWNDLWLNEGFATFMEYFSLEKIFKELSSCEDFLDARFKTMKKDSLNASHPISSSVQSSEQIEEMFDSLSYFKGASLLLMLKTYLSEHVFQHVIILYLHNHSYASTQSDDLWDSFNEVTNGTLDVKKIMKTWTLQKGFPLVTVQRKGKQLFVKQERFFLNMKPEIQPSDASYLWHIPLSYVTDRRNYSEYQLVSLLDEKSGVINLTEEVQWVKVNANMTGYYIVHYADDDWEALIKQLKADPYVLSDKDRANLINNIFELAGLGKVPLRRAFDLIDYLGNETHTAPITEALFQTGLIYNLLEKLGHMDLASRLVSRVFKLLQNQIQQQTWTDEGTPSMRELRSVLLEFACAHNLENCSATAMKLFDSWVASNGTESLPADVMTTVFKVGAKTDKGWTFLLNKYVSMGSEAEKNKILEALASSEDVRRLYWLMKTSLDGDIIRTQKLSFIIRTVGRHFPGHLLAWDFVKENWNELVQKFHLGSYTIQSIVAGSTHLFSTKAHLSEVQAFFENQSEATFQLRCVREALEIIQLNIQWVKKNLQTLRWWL

AT4 receptor [9] = molecular target: T4, AT4 receptor (Cavia porcellus, UniProt H0VNM7); assay: 125I-AIV binding and competition, guinea pig hippocampus membranes; conditions: competition of 0.6 nM 125I-AIV
T4 sequence (H0VNM7 1-1025): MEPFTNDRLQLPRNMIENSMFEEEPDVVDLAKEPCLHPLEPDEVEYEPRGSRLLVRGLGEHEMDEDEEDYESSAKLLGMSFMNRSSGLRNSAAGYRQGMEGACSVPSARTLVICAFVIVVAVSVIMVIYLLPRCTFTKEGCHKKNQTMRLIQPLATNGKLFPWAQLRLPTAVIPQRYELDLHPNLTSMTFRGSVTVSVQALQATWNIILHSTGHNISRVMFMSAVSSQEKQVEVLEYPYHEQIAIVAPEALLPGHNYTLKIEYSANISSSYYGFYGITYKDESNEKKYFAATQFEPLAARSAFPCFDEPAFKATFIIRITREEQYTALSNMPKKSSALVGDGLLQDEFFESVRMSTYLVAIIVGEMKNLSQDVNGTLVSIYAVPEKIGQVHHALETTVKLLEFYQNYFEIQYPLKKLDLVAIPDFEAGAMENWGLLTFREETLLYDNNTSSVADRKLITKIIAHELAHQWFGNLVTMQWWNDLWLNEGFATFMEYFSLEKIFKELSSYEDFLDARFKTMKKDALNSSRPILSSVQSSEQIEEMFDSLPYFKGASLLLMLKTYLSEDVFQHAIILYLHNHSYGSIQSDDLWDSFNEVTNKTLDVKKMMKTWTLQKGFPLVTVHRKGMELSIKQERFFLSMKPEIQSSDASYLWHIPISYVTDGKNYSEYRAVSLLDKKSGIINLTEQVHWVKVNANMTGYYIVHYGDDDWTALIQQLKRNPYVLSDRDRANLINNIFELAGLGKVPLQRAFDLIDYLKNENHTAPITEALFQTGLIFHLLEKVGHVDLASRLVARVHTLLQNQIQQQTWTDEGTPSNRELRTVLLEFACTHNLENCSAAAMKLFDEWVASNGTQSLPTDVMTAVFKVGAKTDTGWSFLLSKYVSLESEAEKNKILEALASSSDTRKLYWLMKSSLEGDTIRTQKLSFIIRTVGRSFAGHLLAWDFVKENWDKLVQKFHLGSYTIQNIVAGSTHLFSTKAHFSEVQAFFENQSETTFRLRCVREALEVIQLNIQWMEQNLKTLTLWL

rat kidney = assay: Renal cortical blood flow (laser doppler) and arterial pressure after infusion into the renal artery; format: in vivo
[10] = read-out: 125I-AIV Binding (Ki), competition

For CC[C@H](C)[C@H](NC(=O)[C@H](Cc1ccc(O)cc1)NC(=O)[C@@H](NC(=O)[C@@H](N)CCCNC(=N)N)C(C)C)C(=O)N[C@@H](Cc1c[nH]cn1)C(=O)N1CCC[C@H]1C(=O)N[C@@H](Cc1ccccc1)C(=O)O [AIII, Arg1 Val2 Tyr3 Ile4 His5 Pro6 Phe7, reference compound], the “fold less active than AIV ligand” value (AT4 receptor [1]; density-gradient-purified heat-treated membranes) was “about 52 fold”, the Ki (AT4 receptor [1]; density-gradient-purified heat-treated membranes, read-out: apparent affinity (Ki)) was 29.3 nM and the Ki (AT4 receptor [1]; [10]) was over 14.5 nM. For the same molecule, the “fold less active than AIV ligand” value (AT4 receptor [2]) was “approximately 29 fold”, the “times less effective than AIV in competing binding” value (AT4 receptor [2]) was “approximately 100 times” and the Ki (AT4 receptor [3]; competition of 0.5 nM 125I-AIV) was 23.3 ± 3.4 nM. The “hydrolysis in binding buffer” value [4] was “less than 10%”, the half-lives [5] was 2.0 min and the “metabolized during transit through the kidney” value [6] was 89%.

CGP 42112A gave a Ki (AT4 receptor [1]; [10]) of over 100000 nM, a Ki ([7]; competition) of over 100 µM and a Ki (AT4 receptor [8]) of over 1000 nM. The Ki (AT4 receptor [3]; unit inferred) was over 100000 nM and the Ki (AT4 receptor [9]) was over 100 µM.

For “Asp1 Arg2 Val3 Tyr4 Ile5 His6 Pro7 Phe8His9 Leu10 (DRVYIHPFHL) [AI]”, the “hydrolysis in binding buffer” value [4] is listed as “less than 10%” and the “metabolized during transit through the kidney” value [6] is listed as 72-76%.

With SRVYIHPI [Sar1, Ile8 -AII] the Ki (AT4 receptor [1]; [10]) was over 1000 nM, the “Hill Coeff.” value [7] was 1.00 ± .03 and the Bmax ([7]; listed as 125I Sar1, Ile8 -Ang II) was 1.03 ± .26 pmol/mg prot. It also gave a Bmax ([7]; listed as 125I-Sar1,Ile8 -AII) of 1.03±0.26 pmol/mg prot, a Kd ([7]; read-out: Kd (calculated from kinetic constants)) of 0.225 nM and a Ki (AT4 receptor [8]) of over 1000 nM. For the same molecule, the “increase in Ki (decrease in affinity) compared with AIV” value (AT4 receptor [3]) was 200 fold, the Ki (AT4 receptor [3]; competition of 0.5 nM 125I-AIV) was 261 ± 89.1 nM and the Ki (AT4 receptor [9]) was over 1 µM. For the same molecule, the “average change in AIV-induced blood flow with preinfusion” value (rat kidney; 1 nmol/min, 10 min preinfusion) was under 3% and the “effect of preinfusion on blood flow response to another ligand” value (rat kidney; rat, in vivo) was “completely blocked the AII effect while having no effect on AIV”.
